Measurements published in the NIST ThermoML archive (doi:10.1021/acs.jced.7b00429).

Assays:
[1] = 100 kPa, Liquid; for viscosity: Falling or rolling sphere viscometry; for speed of sound: Frequency=3 MHz, Single path-length method; for mass density: Vibrating tube method
[2] = xn = mol fraction of the nth substance listed; conditions: 100 kPa, Liquid, x2 = 0; for viscosity: Falling or rolling sphere viscometry; for speed of sound: Frequency=3 MHz, Single path-length method; for mass density: Vibrating tube method

CC#N [acetonitrile]
[1]
Conditions	mass density [kg/m3]	speed of sound [m/s]	viscosity [mPa·s]
298.15 K	776.71	1278.5	0.34
303.15 K	771.29	1258.4	0.32
308.15 K	765.83	1238.2	0.31
313.15 K	760.34	1218	0.3
318.15 K	754.82	1197.9	0.29
323.15 K	749.25	1177.8	0.28

CCn1cc[n+](C)c1.O=S(=O)([O-])C(F)(F)F [1-ethyl-3-methylimidazolium trifluoromethanesulfonate]
[1]
Conditions	mass density [kg/m3]	speed of sound [m/s]	viscosity [mPa·s]
298.15 K	1379.91	1436	45.67
303.15 K	1375.71	1425.4	38.31
308.15 K	1371.51	1414.3	32.38
313.15 K	1367.36	1403	27.68
318.15 K	1363.21	1392.7	23.86
323.15 K	1359.07	1381.7	20.75

CC#N [acetonitrile] + CCn1cc[n+](C)c1.O=S(=O)([O-])C(F)(F)F
[2]
Conditions	mass density [kg/m3]	speed of sound [m/s]	viscosity [mPa·s]
298.15 K	776.71	1278.5	0.34
303.15 K	771.29	1258.4	0.32
308.15 K	765.83	1238.2	0.31
313.15 K	760.34	1218	0.3
318.15 K	754.82	1197.9	0.29
323.15 K	749.25	1177.8	0.28
